# Key:
# Assay type in all cases: functional
# [1] = system: PC-3; assay: Growth inhibition of human PC3 cells after 48 hrs by […] growth inhibition assay; conditions: PC-3, 48 h
# [2] = system: HCT-116; assay: Growth inhibition of human HCT116 cells assessed as cell growth at 100 uM after 48 hrs by SRB assay; conditions: HCT-116, 48 h, read-out: Activity
# [3] = system: SNB-19; assay: Growth inhibition of human SNB19 cells assessed as cell growth at 1 uM after 48 hrs by SRB assay; conditions: SNB-19, 48 h, read-out: Activity
# [4] = system: UACC-62; assay: Growth inhibition of human UACC62 cells assessed as cell growth at 10 uM after 48 hrs by SRB assay; conditions: UACC-62, 48 h, read-out: Activity
# [5] = system: TK-10; assay: Growth inhibition of human TK10 cells assessed as cell growth at 1 uM after 48 hrs by SRB assay; conditions: TK-10, 48 h, read-out: Activity
# [6] = system: U-251; assay: Growth inhibition of human U251 cells assessed as cell growth at 10 uM after 48 hrs by SRB assay; conditions: U-251, 48 h, read-out: Activity
# [7] = system: COLO 205; assay: Growth inhibition of human COLO205 cells after 48 hrs by […] growth inhibition assay; conditions: COLO 205, 48 h
# [8] = system: SNB-75; assay: Growth inhibition of human SNB75 cells assessed as cell growth at 10 uM after 48 hrs by SRB assay; conditions: SNB-75, 48 h, read-out: Activity
# [9] = system: SF-539; assay: Growth inhibition of human SF539 cells after 48 hrs by […] growth inhibition assay; conditions: SF-539, 48 h
# [10] = system: NCI-H226; assay: Growth inhibition of human NCI-H226 cells assessed as cell growth at 0.1 uM after 48 hrs by SRB assay; conditions: NCI-H226, 48 h, read-out: Activity
# [11] = system: NCI/ADR-RES; assay: Growth inhibition of human NCI/ADR-RES cells after 48 hrs by SRB assay
# [12] = system: SNB-75; assay: Growth inhibition of human SNB75 cells assessed as cell growth at 1 uM after 48 hrs by SRB assay; conditions: SNB-75, 48 h, read-out: Activity
# [13] = system: SF-295; assay: Growth inhibition of human SF295 cells assessed as cell growth at 0.1 uM after 48 hrs by SRB assay; conditions: SF-295, 48 h, read-out: Activity
# [14] = system: SK-MEL-28; assay: Growth inhibition of human SK-MEL-28 cells after 48 hrs by […] growth inhibition assay; conditions: SK-MEL-28, 48 h, read-out: LC50 (the source's name)
# [15] = system: NCI-H522; assay: Growth inhibition of human NCI-H522 cells assessed as cell growth at 10 uM after 48 hrs by SRB assay; conditions: NCI-H522, 48 h, read-out: Activity
# [16] = system: TK-10; assay: Growth inhibition of human TK10 cells assessed as cell growth at 100 uM after 48 hrs by SRB assay; conditions: TK-10, 48 h, read-out: Activity
# [17] = system: OVCAR-3; assay: Growth inhibition of human OVCAR3 cells assessed as cell growth at 1 uM after 48 hrs by SRB assay; conditions: OVCAR-3, 48 h, read-out: Activity
# [18] = system: NCI-H460; assay: Growth inhibition of human NCI-H460 cells assessed as cell growth at 1 mM after 48 hrs by SRB assay; conditions: NCI-H460, 48 h, read-out: Activity
# [19] = system: HCC 2998; assay: Growth inhibition of human HCC2998 cells assessed as cell growth at 10 uM after 48 hrs by SRB assay; conditions: HCC 2998, 48 h, read-out: Activity
# [20] = system: SK-MEL-5; assay: Growth inhibition of human SK-MEL-5 cells assessed as cell growth at 0.1 uM after 48 hrs by SRB assay; conditions: SK-MEL-5, 48 h, read-out: Activity
# [21] = system: OVCAR-3; assay: Growth inhibition of human OVCAR3 cells after 48 hrs by […] growth inhibition assay; conditions: OVCAR-3, 48 h
# [22] = system: NCI/ADR-RES; assay: Growth inhibition of human NCI/ADR-RES cells assessed as cell growth at 1 uM after 48 hrs by SRB assay; conditions: read-out: Activity
# [23] = system: A549; assay: Growth inhibition of human A549 cells assessed as cell growth at 0.1 uM after 48 hrs by SRB assay; conditions: A549, 48 h, read-out: Activity
# [24] = system: SF-539; assay: Growth inhibition of human SF539 cells assessed as cell growth at 100 uM after 48 hrs by SRB assay; conditions: SF-539, 48 h, read-out: Activity
# [25] = system: MDA-MB-468; assay: Growth inhibition of human MDA-MB-468 cells after 48 hrs by […] growth inhibition assay; conditions: MDA-MB-468, 48 h
# [26] = system: ACHN; assay: Growth inhibition of human ACHN cells assessed as cell growth at 100 uM after 48 hrs by SRB assay; conditions: read-out: Activity
# [27] = system: LOX IMVI; assay: Growth inhibition of human LOXIMVI cells assessed as cell growth at 0.1 uM after 48 hrs by SRB assay; conditions: read-out: Activity
# [28] = system: ACHN; assay: Growth inhibition of human ACHN cells assessed as cell growth at 1 mM after 48 hrs by SRB assay; conditions: read-out: Activity
# [29] = system: CAKI-1; assay: Growth inhibition of human Caki1 cells assessed as cell growth at 0.1 uM after 48 hrs by SRB assay; conditions: CAKI-1, 48 h, read-out: Activity
# [30] = system: SW-620; assay: Growth inhibition of human SW620 cells assessed as cell growth at 10 uM after 48 hrs by SRB assay; conditions: SW-620, 48 h, read-out: Activity
# [31] = system: SK-MEL-28; assay: Growth inhibition of human SK-MEL-28 cells assessed as cell growth at 10 uM after 48 hrs by SRB assay; conditions: SK-MEL-28, 48 h, read-out: Activity
# [32] = system: HL-60(TB); assay: Growth inhibition of human HL-60(TB) cells assessed as cell growth at 10 uM after 48 hrs by SRB assay; conditions: HL-60, 48 h, read-out: Activity
# [33] = read-out: LC50 (the source's name)
# [34] = read-out: pLC50 (the source's name) (converted)
compound,measurement,setting,value
CNC(=O)NC[C@H]1O[C@@H](n2cnc3c(NC(=O)Nc4ccccc4)ncnc32)[C@H](O[Si](C)(C)C(C)(C)C)[C@@H]1O[Si](C)(C)C(C)(C)C,GI50,[1]; read-out: GI50,2.69 µM
same,CC50,[1]; [33],> 100 µM
same,TGI,[1]; read-out: TGI,> 1 µM
same,GI50,[1]; read-out: pGI50 (converted),2.69 µM
same,CC50,[1]; [34],> 100 µM
same,TGI,[1]; read-out: pTGI (converted),> 100 µM
same,growth at 100 µM,[2],-59%
same,growth at 1 µM,[3],100%
same,growth at 10 µM,[4],90%
same,growth at 1 µM,[5],113%
same,growth at 10 µM,[6],93%
same,GI50,[7]; read-out: GI50,1.89 µM
same,CC50,[7]; [33],5.98 µM
same,TGI,[7]; read-out: TGI,3.36 µM
same,GI50,[7]; read-out: pGI50 (converted),1.91 µM
same,CC50,[7]; [34],6.03 µM
same,TGI,[7]; read-out: pTGI (converted),3.39 µM
same,growth at 10 µM,[8],73%
same,GI50,[9]; read-out: GI50,3.07 µM
same,CC50,[9]; [33],94.3 µM
same,TGI,[9]; read-out: TGI,13 µM
same,GI50,[9]; read-out: pGI50 (converted),3.09 µM
same,CC50,[9]; [34],93.3 µM
same,TGI,[9]; read-out: pTGI (converted),12.9 µM
same,growth at 0.1 µM,[10],102%
same,GI50,[11]; read-out: GI50,3.72 µM
same,CC50,[11]; [33],> 100 µM
same,TGI,[11]; read-out: TGI,20.7 µM
same,GI50,[11]; read-out: pGI50 (converted),3.72 µM
same,CC50,[11]; [34],> 100 µM
same,TGI,[11]; read-out: pTGI (converted),20.9 µM
same,growth at 1 µM,[12],95%
same,growth at 0.1 µM,[13],103%
same,CC50,[14],28.3 µM
same,growth at 10 µM,[15],90%
same,growth at 100 µM,[16],14%
same,growth at 1 µM,[17],113%
same,growth at 1000 µM,[18],-75%
same,growth at 10 µM,[19],106%
same,growth at 0.1 µM,[20],102%
same,GI50,[21]; read-out: GI50,2.6 µM
same,CC50,[21]; [33],98.2 µM
same,TGI,[21]; read-out: TGI,5.54 µM
same,GI50,[21]; read-out: pGI50 (converted),2.63 µM
same,CC50,[21]; [34],97.7 µM
same,TGI,[21]; read-out: pTGI (converted),5.5 µM
same,growth at 1 µM,[22],109%
same,growth at 0.1 µM,[23],99%
same,growth at 100 µM,[24],7%
same,GI50,[25]; read-out: GI50,3.35 µM
same,CC50,[25]; [33],> 100 µM
same,TGI,[25]; read-out: TGI,13.9 µM
same,GI50,[25]; read-out: pGI50 (converted),3.39 µM
same,CC50,[25]; [34],> 100 µM
same,TGI,[25]; read-out: pTGI (converted),13.8 µM
same,growth at 100 µM,[26],10%
same,growth at 0.1 µM,[27],102%
same,growth at 1000 µM,[28],2%
same,growth at 0.1 µM,[29],103%
CNC(=O)OC[C@H]1O[C@@H](n2cnc3c(NC(=O)Nc4ccccc4)ncnc32)[C@H](O[Si](C)(C)C(C)(C)C)[C@@H]1O[Si](C)(C)C(C)(C)C,growth at 10 µM,[30],98%
same,growth at 10 µM,[31],102%
same,growth at 10 µM,[4],106%
same,growth at 10 µM,[6],86%
same,growth at 10 µM,[8],76.6%
same,growth at 10 µM,[15],52.6%
same,growth at 10 µM,[32],113%
